From US20240067603A1, “CUBANYL BIGUANIDE COMPOUNDS” (REGENTS OF THE UNIVERSITY OF MINNESOTA, priority 2020, published 2024) come the findings set out here.

Like-named read-outs stand apart in the source and are kept apart here.

For data set [1], the system named is MCF-7 cells. As to the kind of experiment: MTT cell proliferation assay, MCF-7. The data set is classed as cell-based, human. The note with it: MCF7. Here is the method:
FIG. 8. Effects of HCB on the proliferation of MCF-7 cells. MCF-7 cells were seeded in 96 well plates and treated with drugs at varied concentration for 24 hours. MTT assay was performed to determine remaining viable cells in each well. Results are represented as mean±S.D. (n=7). IC50 was determined by curve fitting.
(§1) 3-(4,5-Dimethylthiazol-2-yl)-2,5-diphenyltetrazolium Bromide (MTT) Cell Proliferation Assay. To cells grown in 96-well-tissue culture plate, 20 μl/well of MTT solution (5 mg/ml in PBS) was added. After 1-2 hours incubation at 37° C., the plate was centrifuged. Supernatant was discarded and 100 μl DMSO was added to dissolve water insoluble formazan, and the absorbance was read at 540 nm with a plate reader.

In data set [2] the test system is mm006. As to the kind of experiment: Inhibition of mammary carcinoma cell line mm006. The note with it: Mus musculus, read-out: IC50 (uM), mm006. Format: cell-based, mouse (C57BL/6). Here is the method:
as §1

The subject of data set [3] is MDA-MB-231. Nature of the data set: Inhibition of mammary carcinoma cell line MDA-MB-231. Format: cell-based. To be noted: Table 5; MDA-MB-231, human, Basal, HER2−. Here is the method:
as §1

For data set [4], the system named is LR/FR/PR MCF7A1C cells. Nature of the data set: Crystal violet cell proliferation assay, LR,FR,PR-MCF7AC1. The data set is classed as cell-based. To be noted: Homo sapiens, read-out: IC50, LR/FR/PR MCF7A1C cells.
Experimental: Cell proliferation assay: The cells mentioned in this study were seeded in 96 wells-plates (2000-4000 cells/well) and treated 24 hours later with DMSO (vehicle control), HCB or HBB drugs at the indicated concentrations. […] The CV stained plates were solubilized in 100 mM sodium citrate in 50% ethanol solution and absorbance of the stain measured at 550 nm using a plate reader. Each data point represents mean±SD, obtained from six wells per treatment performed in biological triplicates.
For data set [5], the system named is MCF10A cells. Nature of the data set: Crystal violet cell proliferation assay, MCF10A. The data set is classed as cell-based. The note with it: Homo sapiens, MCF-10A, 72 hours. Here is the method: Cell proliferation assay: The cells mentioned in this study were seeded in 96 wells-plates (2000-4000 cells/well) and treated 24 hours later with DMSO (vehicle control), HCB or HBB drugs at the indicated concentrations. 72 hours later, the cells were fixed in situ with 25% (v/v) glutaraldehyde, followed by staining with 0.52% crystal violet (CV) in 25% methanol (Fisher Chemical). The CV stained plates were solubilized in 100 mM sodium citrate in 50% ethanol solution and absorbance of the stain measured at 550 nm using a plate reader. Each data point represents mean±SD, obtained from six wells per treatment performed in biological triplicates. All reagents were from Sigma-Aldrich unless otherwise stated.

In data set [6] the test system is SARS-CoV-2. As to the kind of experiment: SARS-CoV-2 antiviral assay in Vero cells. To be noted: Severe acute respiratory syndrome coronavirus 2, Vero cells, FIG. 11; for IC50: read-out: antiviral IC50; for IC90: read-out: antiviral IC90. Format: cell-based.
In data set [7] the test system is SARS-CoV-2. Nature of the data set: microbe, parasite or virus in culture. Format: cell-based. To be noted: Severe acute respiratory syndrome coronavirus 2, 293T/ACE2, FIG. 12; for IC50: read-out: antiviral IC50; for IC90: read-out: antiviral IC90.
Data set [8] is described as follows: Pharmacokinetics in mice plasma (LC-MS/MS). The data set is classed as in vivo. To be noted: for AUC, subcutaneous vs IV, intraperitoneal or oral: FIGS. 14-15; for HL_Lambda_z: mice plasma; for Cmax / Tmax: mouse, plasma. Here is the method:
HBB PK method: HBB in mice plasma was determined with an LC-MS/MS method using d5-HBB as the internal standard.
Sample preparation: HBB in 150 μL mice plasma was extracted by addition of 300 μL acetonitrile spiked with d5-HBB internal standard (0.5 ug/ml). The extraction mixture was centrifuged at 12,000×g for 5 minutes and 150 μL of supernatant was saved for LC-MS/MS analysis.
(§2) LC-MS/MS method: A Quattro Ultima mass spectrometer (Waters, Milford, MA) equipped with an Acquity UPLC (Waters, Milford, MA) and interfaced through an MassLynx software (Waters, Milford, MA) was used. HBB and d5-HBB were resolved at base line with a Zorbax Eclipse XDG-C18 column (4.6×50 mm, 1.8 micron) (Agilent, Santa Clara, CA). Mobile phases were A: water (0.1% formic acid) and B: acetonitrile (0.1% formic acid). The flow rate was 250 μL/min. Elution gradient was as follow: 0-5 min, 90% A and 10% B; 5 min, 10% A and 90% B; 5.25 min, 90% A and 10% B; 10 min, 90% A and 10% B. At positive mode, ion transition for HBB 276.01 mz to 91.02 mz and d5-HBB 281.09 to 96.06 were monitored.
Quantification: Quantitation was carried out by the MassLynx software based on an HBB standard curve (1.5-1500 ng/ml). Per FDA bioanalytical method validation guideline, standards and plasma samples were bracketed with QC samples to ensure accuracy and precision of the measurement.
HCB PK method: HCB in mouse plasma was determined with an LC-MS/MS method using d5-HBB as the internal standard.
Sample preparation: HCB in 150 μL mice plasma was extracted by addition of 300 μL acetonitrile spiked with d5-HBB internal standard (0.5 ug/ml). The extraction mixture was centrifuged at 12,000×g for 5 minutes and 150 μL of supernatant was saved for LC-MS/MS analysis.
as §2, with “used. Neo biguanide” for “used. HBB”, “Eclipse XDB-C18 Rapid Resolution HT (P.M. 927975-902)” for “Eclipse XDG-C18”, “for” for “for HBB 276.01 mz to 91.02 mz and”, “96.06 and corresponding neo biguanide parent daughter ion transition” for “96.06”
Quantification: Quantitation was carried out by the MassLynx software based on an HCB standard curve (1.5-1500 ng/ml). Per FDA bioanalytical method validation guideline, standards and plasma samples were bracketed with QC samples to ensure accuracy and precision of the measurement.

Data set [9] can be described thus: in vitro. To be noted: African green monkey, Vero E6 cells.
Data set [10] in a line: Cytotoxicity assay in 293T/ACE2 cells. To be noted: human, HEK293T/17 cells expressing human ACE2.
Data set [11] has as its system 293T human embryonic kidney cells over-expressing the ACE2 receptor. Nature of the data set: Cytotoxicity assay in 293T/ACE2 cells. The note with it: 293T/ACE2 cytotoxicity.
The mark [12] stands for this setting: Table 5, MCF-7, human, ERα+, HER2−, read-out: IC50 (uM), MCF-7.

What is called IC90 is the concentration at which the effect reaches the 90% level. A word on the Cmax: it is the highest concentration seen after dosing. As a reminder, the Tmax is the time from dosing to the highest level. The term CC50 denotes the concentration giving 50% cytotoxicity.

For the compound `CCCCCCNC(=N)NC(=N)NCc1ccccc1` [HBB, N1-hexyl-N5-benzyl-biguanide], the IC50 is 22.2 µM in [1] (setting [12]); 38.5 µM in data set [2]; 18.5 µM in data set [3]; 4.9 µM in data set [4] (72 h); 5.2 µM in data set [5]; above 20 µM in data set [6]. Besides, the IC50 in [7] turned out to be 0.82 µM. Also, the concentration for an effect of 90% (IC90) in [6] was above 20 µM; in data set [7], 11.3 µM. Moreover, the “AUC, subcutaneous vs IV, intraperitoneal or oral” value in [8] is listed as “better AUC”. Also, the entries for the “Cl_F_obs” value in data set [8] (IP) and in [8] (SC) were 88.25 mL/min/kg and 32.89 mL/min/kg, respectively. The “Vz_F_obs” value in data set [8] (IP) is 62.842 L/kg; in [8] (SC), 23.131 L/kg. In addition, the entries for the “HL_Lambda_z” value in data set [8] (IP), in data set [8] (IV) and in [8] (SC) were 8.23 h, 7.51 h and 8.13 h, respectively. Further, the “Cl_obs” value in data set [8] (IV) is listed as 50.65 mL/min/kg. Moreover, the “Vz_obs” value in [8] (IV) turned out to be 32.933 L/kg. Further, in data set [8] (SC vs ip), the “fold greater AUC, subcutaneous than ip” value is on record as 2.6 fold. Besides, the Cmax in [8] (ip) is 1840 ng/mL; in data set [8] (iv), 20100 ng/mL; in data set [8] (sc), 1860 ng/mL. For the same compound, the Tmax in data set [8] (ip) was 1 min; in data set [8] (iv), 1 min; in data set [8] (sc), 5 min. Besides, the CC50 at 48 h in data set [9] was above 20 µM. Further, half-maximal cytotoxicity in data set [10] (CC50) was put at 26 µM. This compound returned a CC10 in [11] of 1.5 µM.
As for `CCCCCCNC(=N)NC(=N)NCC12C3C4C5C3C1C5C42` (stereo not shown) [HCB, Hexyl Cubanomethyl Biguanide], the IC50 amounted to 8.4 ± 1.2 µM in data set [1] (Homo sapiens, MTT, 24 hours treatment, curve fitting, read-out: IC50, proliferation of MCF-7 cells); 8.4 µM in data set [1] (setting [12]); 16.9 µM in data set [2] (Table 5, mm006, C57BL/6, Basal); 15.4 µM in data set [3]; 1.7 µM in data set [4] (letrozole-, fulvestrant- and palbociclib-resistant, 72 hours, crystal violet); 2.5 µM in data set [5]. The IC50 in data set [6] amounted to 15.6 µM; in data set [7], 0.7 µM. For the same compound, the IC90 in data set [6] was found to be 19.6 µM; in data set [7], 4.8 µM. The “AUC, subcutaneous vs IV, intraperitoneal or oral” value in data set [8] is “better AUC”. In data set [9], the CC50 at 48 h was determined as 13.3 µM. In addition, the CC50 in data set [10] is 7.2 µM. The CC10 in data set [11] turned out to be 1.04 µM.
